Structures can show the parent of a compound that is named as a salt.
Legend:
[1] = biological target: T1, Tubulin purified from pig brains (Sus scrofa, UniProt P02550+P02554); assay: Assessment of the inhibition of tubulin polymerization (turbidimetry at 350 nm); assay type: biochemical; conditions: concentration which inhibits the rate of polymerization by 50%; tubulin 1 mg/ml, 37° C.; read-out: Inhibition of tubulin polymerization IC 50
T1 construct: Tubulin is purified from pig brains according to published methods; from tissue; host or cells: pig brain
T1 sequence (P02550 whole entry): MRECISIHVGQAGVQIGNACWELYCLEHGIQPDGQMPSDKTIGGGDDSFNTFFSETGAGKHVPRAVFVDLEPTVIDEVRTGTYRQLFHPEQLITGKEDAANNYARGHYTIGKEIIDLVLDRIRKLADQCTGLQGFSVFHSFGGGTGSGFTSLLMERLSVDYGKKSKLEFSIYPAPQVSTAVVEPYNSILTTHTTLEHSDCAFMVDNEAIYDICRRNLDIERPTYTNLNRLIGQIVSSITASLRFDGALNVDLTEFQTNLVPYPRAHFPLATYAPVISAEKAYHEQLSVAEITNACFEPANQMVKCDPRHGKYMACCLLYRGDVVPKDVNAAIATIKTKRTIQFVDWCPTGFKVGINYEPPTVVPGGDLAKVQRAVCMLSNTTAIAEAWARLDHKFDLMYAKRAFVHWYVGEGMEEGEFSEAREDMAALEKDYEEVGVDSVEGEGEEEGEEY
T1 sequence (P02554 whole entry): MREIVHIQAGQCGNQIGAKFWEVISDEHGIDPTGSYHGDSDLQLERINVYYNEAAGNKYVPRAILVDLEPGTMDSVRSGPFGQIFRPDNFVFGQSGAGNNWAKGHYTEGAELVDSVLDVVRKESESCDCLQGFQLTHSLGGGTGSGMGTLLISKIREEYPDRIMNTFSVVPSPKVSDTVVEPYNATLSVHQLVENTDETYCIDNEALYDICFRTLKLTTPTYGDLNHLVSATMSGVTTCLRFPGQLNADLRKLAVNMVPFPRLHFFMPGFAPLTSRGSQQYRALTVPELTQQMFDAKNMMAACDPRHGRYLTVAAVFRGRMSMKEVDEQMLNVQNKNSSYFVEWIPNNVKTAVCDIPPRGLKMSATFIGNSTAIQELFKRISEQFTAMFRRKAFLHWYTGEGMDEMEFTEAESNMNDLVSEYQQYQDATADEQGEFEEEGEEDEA
Experimental: Assessment of the Inhibition of Tubulin Polymerization
Tubulin is purified from pig brains according to published methods (Shelanski et al., 1973, Proc. Natl. Acad. Sci. USA, 70, 765-768. Weingarten et al., 1975, Proc. Natl. Acad. Sci. USA, 72, 1858-1862). Briefly, the brains are ground and centrifuged in an extraction buffer. The tubulin, present in the extract supernatant is subjected to two successive cycles of polymerization at 37° C. and depolymerization at 4° C., before being separated from the MAPs (Microtubule Associated Proteins) by chromatography on a phosphocellulose P11 column (Whatman). The tubulin thus isolated is more than 95% pure. It is stored in a buffer known as RB/2 30% glycerol, the composition of which is 50 mM MES-NaOH [2-(N-morpholino)ethanesulfonic acid], pH 6.8; 0.25 mM MgCl2; 0.5 mM EGTA; 30% (v/v) glycerol, 0.2 mM GTP (guanosine 5′-triphosphate).
The polymerization of the tubulin into microtubules is monitored by turbidimetry as follows: the tubulin is adjusted to a concentration of 10 μm (1 mg/ml) in the RB/2 30% glycerol buffer, to which are added 1 mM GTP and 6 mM MgCl2. The polymerization is initiated by increasing the temperature from 6° C. to 37° C. in a cuvette with a 1 cm optical pathlength, placed in a UVIKON 931 spectrophotometer (Kontron) equipped with a thermostatically-regulated cuvette holder. The increase in turbidity of the solution is monitored at 350 nm.
The products are dissolved at 10 mM in DMSO and added at variable concentrations (0.5 to 10 μm) to the tubulin solution before polymerization. The IC50 is defined as the concentration of the product which inhibits the rate of polymerization by 50%.

[2] = system: HCT116 cells; assay: Inhibition of proliferation of the HCT116 human colon tumor line ([14C]-thymidine incorporation); assay type: cell-based; conditions: HCT-116, 48 hours incubation at 37° C., read-out: Inhibition of HCT116 proliferation IC 50
Experimental: Test for Determining the Inhibition of Proliferation of the HCT116 Human Colon Tumor Line
The proliferation of HCT116 cells is evaluated by mesuring the incorporation of [^14C]-thymidine in the following way. The HCT166 cells (from the ATCC) are cultured in a DMEM medium (Gibco) which contains 10% of fetal calf serum and antibiotics (1% penicillin, 1% streptomycin). To perform the proliferation test, the cells are seeded into 96-well cytostar microplates (Amersham) at the rate of 5000 cells per well. The [^14C]-thymidine (0.1 μCi/well) and the products to be evaluated are subsequently added. Variable concentrations of products up to 10 μM are used; the DMSO (solvent used to dissolve the products) should not exceed 0.5% in the medium. 48 hours after incubation at 37° C., the radioactivity incorporated into the cells is measured by counting the plate in a Tri-Lux counter (Wallac). The IC50 is defined as the concentration of product which reduces the radioactivity by 50% compared with an untreated control. A product with an IC50 of less than 10 μm is regarded as cytotoxic.

N#Cc1cccc(N2CCN(C(=O)c3[nH]cnc3-c3ccccc3)CC2)c1 [Example 14, [4-(3-Cyanophenyl)piperazin-1-yl](4-phenyl-1H-imidazol-5-yl)methanone]
IC50 [1]: 1200 nM | IC50 [2]: 7.4 nM

COc1cc(OC)c(O)c(N2CCN(C(=O)c3[nH]c([S+](C)[O-])nc3-c3ccccc3)CC2)c1 (centres unmarked) [Example 38, [4-(2-Hydroxy-3,5-dimethoxyphenyl)piperazin-1-yl](2-methanesulfinyl-5-phenyl-1H-imidazol-4-yl)methanone]
IC50 [1]: 19900 nM | IC50 [2]: 2310 nM

NC(=O)c1cccc(N2CCN(C(=O)c3[nH]c(C(F)(F)F)nc3-c3ccccc3)CC2)c1 [Example 54, 3-[4-(2-Trifluoromethyl-4-phenyl-1H-imidazol-5-ylcarbonyl)piperazin-1-yl]-benzamide]
IC50 [1]: 1080 nM | IC50 [2]: 1890 nM

COc1cc(OC)cc(N2CCN(C(=O)c3cn(CCCC(=O)O)cc3-c3ccccc3)CC2)c1 [Example 46, 4-{3-[4-(3,5-Dimethoxyphenyl)piperazin-1-yl]carbonyl-4-phenyl-1H-pyrrol-1-yl}-butanoic acid]
IC50 [1]: 4350 nM | IC50 [2]: 6380 nM

COc1cc(OC)cc(N2CCN(C(=O)c3cn(C(C)=O)cc3-c3ccccc3)CC2)c1 [Example 41, 1-{3-[4-(3,5-Dimethoxyphenyl)piperazin-1-yl-carbonyl]-4-phenylpyrrol-1-yl}-ethanone]
IC50 [1]: 1330 nM | IC50 [2]: 123 nM

NC(=O)c1cccc(N2CCN(C(=O)c3[nH]c(S)nc3-c3ccccc3)CC2)c1 [Example 44, 3-[4-(2-Mercapto-4-phenyl-1H-imidazol-5-ylcarbonyl)piperazin-1-yl]benzamide]
IC50 [1]: 1060 nM

COc1cc(OC)cc(N2CCN(C(=O)c3cn(Cc4cscn4)cc3-c3ccccc3)CC2)c1 [Example 45, [4-(3,5-Dimethoxyphenyl)piperazin-1-yl][1-(thiazol-4-yl)methyl-4-phenyl-1H-pyrrol-3-yl]methanone]
IC50 [1]: 4850 nM

NC(=O)c1cccc(N2CCN(C(=O)c3c(-c4ccccc4)ccn3CC(=O)O)CC2)c1 [Example 73, {2-[4-(3-Carbamoylphenyl)piperazin-1-ylcarbonyl]-3-phenylpyrrol-1-yl}acetic acid]
IC50 [1]: 18400 nM | IC50 [2]: 2700 nM

O=C(c1[nH]c(C(F)(F)F)nc1-c1ccccc1)N1CCN(c2cccc(CO)c2)CC1 [Example 83, [4-(3-Hydroxymethylphenyl)piperazin-1-yl](2-trifluoromethyl-4-phenyl-1H-imidazol-5-yl)methanone]
IC50 [1]: 1410 nM

CSc1nc(-c2ccccc2)c(C(=O)N2CCN(c3cccc(C#N)c3)CC2)[nH]1 [Example 56, 3-[4-(2-Methylsulfanyl-4-phenyl-1H-imidazol-5-ylcarbonyl)piperazin-1-yl]-benzonitrile]
IC50 [1]: 415 nM | IC50 [2]: 1.7 nM

O=C(c1ccn(CCO)c1-c1ccccc1)N1CCN(c2cccc(CO)c2)CC1 [Example 89]
IC50 [1]: 2990 nM

O=C(c1[nH]cnc1-c1ccccc1)N1CCN(c2cccc(Cl)c2)CC1 [Example 3, [4-(3-Chlorophenyl)piperazin-1-yl](4-phenyl-1H-imidazol-5-yl)methanone]
IC50 [1]: 1000 nM | IC50 [2]: 6.8 nM

COc1cc(OC)cc(N2CCN(C(=O)c3[nH]c(S(C)(=O)=O)nc3-c3ccccc3)CC2)c1 [Example 67, [4-(3,5-Dimethoxyphenyl)piperazin-1-yl](2-methylsulfonyl-4-phenyl-1H-imidazol-5-yl)methanone]
IC50 [1]: 1650 nM | IC50 [2]: 2700 nM

NC(=O)c1cccc(N2CCN(C(=O)c3cn(CCO)cc3-c3ccccc3)CC2)c1 [Example 66, 3-[4-(1-Hydroxyethyl-4-phenyl-1H-pyrrol-3-ylcarbonyl)piperazin-1-yl]benzamide]
IC50 [1]: 2430 nM | IC50 [2]: 2030 nM

COC(=O)Cn1cc(C(=O)N2CCN(c3cccc(C(N)=O)c3)CC2)c(-c2ccccc2)c1 [Example 65]
IC50 [1]: 13500 nM

CS(=O)(=O)c1nc(-c2ccccc2)c(C(=O)N2CCN(c3cccc(C(N)=O)c3)CC2)[nH]1 [Example 71, 3-[4-(2-Methylsulfonyl-4-phenyl-1H-imidazol-4-ylcarbonyl)piperazin-1-yl]benzamide]
IC50 [1]: 13900 nM

COCCNc1nc(-c2ccccc2)c(C(=O)N2CCN(c3cc(OC)cc(OC)c3)CC2)s1 [Example 91, [4-(3,5-Dimethoxyphenyl)piperazin-1-yl][2-(2-methoxyethyl)amino-4-phenylthiazol-5-yl]methanone]
IC50 [1]: 89 nM

O=C(c1cc[nH]c1-c1ccccc1)N1CCN(c2cccc(CO)c2)CC1 [Example 86, [4-(3-Hydroxymethylphenyl)piperazin-1-yl](2-phenyl-1H-pyrrol-3-yl)methanone]
IC50 [1]: 6410 nM

COC(=O)Cn1ccc(C(=O)N2CCN(c3cc(OC)cc(OC)c3)CC2)c1-c1ccccc1 [Example 49, Methyl 2-{3-[4-(3,5-dimethoxyphenyl)piperazin-1-yl]carbonyl-2-phenyl-1H-pyrrol-1-yl}acetate]
IC50 [1]: 1570 nM

COc1cccc(N2CCN(C(=O)c3ccoc3-c3ccc(Cl)cc3)CC2)c1 [Example 5, [4-(3-Methoxyphenyl)piperazin-1-yl][2-(4-chlorophenyl)furan-3-yl]methanone]
IC50 [1]: 11500 nM

COc1cc(OC)cc(N2CCN(C(=O)c3ccn(Cc4cccnc4)c3-c3ccccc3)CC2)c1 [Example 64, [4-(3,5-Dimethoxyphenyl)piperazin-1-yl][1-(3-pyridyl)methyl-2-phenyl-1H-pyrrol-3-yl]methanone]
IC50 [1]: 13400 nM

CN(C)CCn1cc(C(=O)N2CCN(c3cccc(Cl)c3)CC2)c(-c2ccccc2)c1 [Example 31, [4-(3-Chlorophenyl)piperazin-1-yl][1-(2-dimethylaminoethyl)-4-phenyl-1H-pyrrol-3-yl]methanone hydrochloride]
IC50 [1]: 25000 nM

Cn1ccc(-c2ccccc2)c1C(=O)N1CCN(c2cccc(Cl)c2)CC1 [Example 7, [4-(3-Chlorophenyl)piperazin-1-yl](1-methyl-3-phenyl-1H-pyrrol-2-yl)-methanone]
IC50 [1]: 12800 nM

NC(=O)c1cccc(N2CCN(C(=O)c3ccn(CCO)c3-c3ccccc3)CC2)c1 [Example 77, 3-[4-(1-Hydroxyethyl-2-phenyl-1H-pyrrol-3-ylcarbonyl)piperazin-1-yl]-benzamide]
IC50 [1]: 3610 nM

N#Cc1cccc(N2CCN(C(=O)c3[nH]c(C(F)(F)F)nc3-c3ccccc3)CC2)c1 [Example 84, 3-[4-(2-Trifluoromethyl-4-phenyl-1H-imidazol-5-ylcarbonyl)piperazin-1-yl]-benzonitrile]
IC50 [1]: 574 nM

O=C(O)CCn1cc(C(=O)N2CCN(c3cccc(Cl)c3)CC2)c(-c2ccccc2)c1 [Example 32, 3-{3-[4-(3-Chlorophenyl)piperazin-1-ylcarbonyl]-4-phenylpyrrol-1-yl}-propionic acid]
IC50 [1]: 2740 nM

COc1cc(OC)cc(N2CCN(C(=O)c3cc[nH]c3-c3ccccc3)CC2)c1 [Example 21, [4-(3,5-Dimethoxyphenyl)piperazin-1-yl](2-phenyl-1H-pyrrol-3-yl)methanone]
IC50 [1]: 9700 nM

N#Cc1cccc(N2CCN(C(=O)c3cn(CCO)cc3-c3ccccc3)CC2)c1 [Example 87, 3-[4-(1-Hydroxyethyl-4-phenyl-1H-pyrrol-3-ylcarbonyl)piperazin-1-yl]-benzonitrile]
IC50 [1]: 582 nM

Cn1ccc(C(=O)N2CCN(c3cccc(CO)c3)CC2)c1-c1ccccc1 [Example 80, [4-(3-Hydroxymethylphenyl)piperazin-1-yl](1-methyl-2-phenyl-1H-pyrrol-3-yl)-methanone]
IC50 [1]: 7760 nM

COCCNc1nc(-c2ccccc2)c(C(=O)N2CCN(c3cc(C)cc(C)c3)CC2)s1 [Example 90, [4-(3,5-Dimethylphenyl)piperazin-1-yl][2-(2-methoxyethyl)amino-4-phenylthiazol-5-yl]methanone]
IC50 [1]: 95 nM

N#Cc1cccc(N2CCN(C(=O)c3cn(Cc4cccnc4)cc3-c3ccccc3)CC2)c1 [Example 92, 3-{4-[1-(Pyridin-3-yl)methyl-4-phenyl-1H-pyrrol-3-ylcarbonyl]piperazin-1-yl}-benzonitrile]
IC50 [1]: 167 nM
